Source: patent publication US20150265656A1, “HUMAN ENDOCRINE PROGENITORS FROM ADULT PANCREATIC TISSUE” (THE JOHNS HOPKINS UNIVERSITY, priority 2012, published 2015)
Peptide text beside a SMILES is read from it. * marks the point of attachment. Cbz = O=C(OCc1ccccc1)*

Legend:
[1] = tested on: NGN3+ cells in cultured adult human pancreatic tissue; experiment: % NGN3+ nuclei/cells in cultured pancreatic tissue (immunostaining); assay type: cell-based
Procedure: Human cadaveric pancreas tissue that had been enzymatically digested and subjected to density centrifugation (57) was received 2-3 days post mortem. In all experiments, stated replication refers to the number of cultures from individual organ donors unless otherwise defined. Islet purity varied between preparations from <10% to >90%. Pancreatic tissue was resuspended in 10 ml Miami Media 1A (Mediatech) supplemented with freshly prepared 0.01 g/L glutathione and cultured in low adhesion dishes at 37° C. for 4 days. Media was replaced every 2-3 days. Inhibition of γ-secretase was carried out by daily addition of N—[N-(3,5-Difluorophenacetyl-L-alanyl)]-S-phenylglycine t-butyl ester (DAPT, Tocris Biosciences) or 7-Amino-4-chloro-3-methoxyisocoumarin (JLK6, EMD Biosceinces). JAG-1 (ANASPEC), a 17-residue polypeptide corresponding to amino acids 188-204 of the Jagged-1 Notch ligand (58) and a negative control polypeptide comprised of scrambled JAG-1 amino acids were used at 47 μM. A second Notch ligand, Delta-like ligand 4 (D114)(R&D Systems) was used at 500 ng/ml. Inhibition of proteasome degradation was carried out with N-[(Phenylmethoxy)carbonyl]-L-leucyl-N-[(1S)-1-formyl-3-methylbutyl]-L-leucinamide (MG132, Tocris Bioscience) and (2R,3S,4R)-3-Hydroxy-2-[(1S)-1-hydroxy-2-methylpropyl]-4-methyl-5-oxo-2-pyrrolidinecarboxy-N-acetyl-L cysteine thioester (clasto-lactacystin beta-lactone, Tocris Bioscience). Inhibition of EGF receptor kinase was carried out with N-(3-Chlorophenyl)-6,7-dimethoxy-4-quinazolinanine hydrochloride (AG1478, Tocris Bioscience) and with N-(3-Chlorophenyl)-6,7-dimethoxy-4-quinazolinanine hydrochloride (Erlotinib, Cayman Chemical). STAT3 activation was blocked with a cell-permeable analog of the STAT3-SH2 domain-binding phosphopeptide (PpYLKTK-mts, EMD Biosciences).
Tissues stained for NGN3 expression were sectioned and stained as soon as possible after harvest. Freshly sectioned 5-8 micron frozen sections of islet preparation tissue were fixed for 5 min. in 4% paraformaldehyde (PFA) prepared in phosphate buffered saline (PBS), quenched for 5 min in 50 mM glycine in PBS then blocked in 5% donkey serum, 1% BSA in PBS for 30 min. at room temperature. 0.1 to 0.2% Triton-X100 was included for cytoplasmic and nuclear antigens, respectively. Primary antibodies were diluted in blocking buffer; mouse anti-CD133/1 (IgG1) and CD133/2 (IgG2b) unconjugated and conjugated to phycoerythrin (Miltenyi Biotec), mouse anti-cytokeratin 19 (CK19, Chemicon), guinea pig anti-swine insulin (Dako), rabbit anti-CPEP (LINCO), mouse anti-GLU (R&D Systems), goat anti-PDX1 (gift from Chris Wright), mouse anti-CgA (Dako); goat anti-amylase (AMY, Santa Cruz), mouse anti-NGN3 (Developmental Studies Hybridoma Bank, Iowa City, Iowa, hybridoma supernatant), rabbit anti-cleaved caspase-3 (Cell Signaling Technology), rabbit Ki67 (abcam), mouse anti-human E-cadherin (Invitrogen). BrdU and EdU detection were by kit from BD Bioscience and Invitrogen, respectively. Quantitative analysis of protein expression on frozen sections was carried out by imaging >800 nuclei in randomly selected fields for each treatment group. For analysis of CD133+ cells immediately after preparative fluorescent activated cell sorting (FACS), cells were immobilized, fixed and quenched directly on glass slides using a cytospin. For identification and quantification cells within pancospheres, spheres were fixed and stained similarly to tissue sections except all incubations and washes were overnight at 4° C. Stained pancospheres were mounted on coverslipped glass slides. For quantitative analyses, unbiased stereology (Stereo Investigator software) was used to estimate number of nuclei per pancosphere. Sectioned tissue and pancospheres were imaged by confocal microscopy through the Z-axis in a series of 1 micron optical sections using sequential acquisition mode. […] Mean % CPEP, % GLU and % CgA were calculated from a total of 17 pancospheres.

[2] = tested on: HES1 mRNA; experiment: HES1 mRNA level in cultured pancreatic tissue (quantitative RT-PCR); assay type: cell-based, human; details: 4 days of culture
Procedure: (§1) Human cadaveric pancreas tissue that had been enzymatically digested and subjected to density centrifugation (57) was received 2-3 days post mortem. In all experiments, stated replication refers to the number of cultures from individual organ donors unless otherwise defined. Islet purity varied between preparations from <10% to >90%. Pancreatic tissue was resuspended in 10 ml Miami Media 1A (Mediatech) supplemented with freshly prepared 0.01 g/L glutathione and cultured in low adhesion dishes at 37° C. for 4 days. Media was replaced every 2-3 days. […]
(§2) Human adult and fetal pancreas RNA was commercially prepared. […] Levels of HES 1, PTF1A, PDX1, NGN3 and CYCLOPHILLIN A were determined by using Taqman® gene expression assays Hs00172878_m1, Hs00603586_g1, Hs00426216_m1, Hs00360700_g1 and Hs99999904_m1, respectively. Mean levels (6 readings/sample) of genes of interest were normalized to mean levels of CYCLOPHILLIN A. MicroRNAs hsa-mir-15a, hsa-mir-15b, hsa-mir-16 and hsa-mir-195 levels were measured using sequence specific reverse transcriptase primers and TaqMan® detection reagents (Applied Biosystems). Mean levels (6 readings/sample) of miRNAs were normalized to mean levels of 18S rRNA (Applied Biosystems Ribosomal RNA Reagent). Significance of RTPCR data was determined by ANOVA with Bonferroni-Holm Post hoc testing.

[3] = tested on: PTF1A mRNA; experiment: PTF1A mRNA level in cultured pancreatic tissue (quantitative RT-PCR); assay type: cell-based, human; details: 4 days of culture
Procedure: as §1, §2

[4] = tested on: NGN3 mRNA; experiment: NGN3 mRNA level in cultured pancreatic tissue (quantitative RT-PCR); assay type: cell-based, human; details: 4 days of culture
Procedure: as §1, §2

[5] = tested on: pancospheres from CD133+/NGN3+ cells; experiment: Pancosphere endocrine maturation, hormone-expressing cells; assay type: cell-based, human; details: maturation media with 10 μM MPA
Procedure: To form pancospheres, CD133+ cells were resuspended at 2×10^5 cells/ml in HuES media [Knockout DMEM (Invitrogen), 10% Knockout Serum Replacement (Invitrogen), 10% Albumax, 10 ng/ml fibroblast growth factor 2 (FGF2), 1×Na pyruvate, and 1× non-essential amino acids] conditioned by overnight incubation on human SDEC cells (59, 60) and 1-2% Matrigel. Media was supplemented every 3-4 days for up to 21 days. Media was then changed to Maturation media [RPMI 1640, 0.5% BSA, 10 mM nicotinamide, 50 ng/ml human insulin like growth factor II (IGF II, R&D Systems)] for 7 days with addition of fresh nicotinamide and IGF II every 2 days without media change. IGF II was then slowly withdrawn by subsequent 50% media changes. […]
Tissues stained for NGN3 expression were sectioned and stained as soon as possible after harvest. […] Quantitative analysis of protein expression on frozen sections was carried out by imaging >800 nuclei in randomly selected fields for each treatment group. […] For identification and quantification cells within pancospheres, spheres were fixed and stained similarly to tissue sections except all incubations and washes were overnight at 4° C. […] For quantitative analyses, unbiased stereology (Stereo Investigator software) was used to estimate number of nuclei per pancosphere. […] Mean % CPEP, % GLU and % CgA were calculated from a total of 17 pancospheres.

COc1cc2ncnc(Nc3cccc(Cl)c3)c2cc1OC.Cl [AG1478, N-(3-Chlorophenyl)-6,7-dimethoxy-4-quinazolinanine hydrochloride]
% NGN3+ cells, % of carrier control ([1]; 3 nM AG1478, 4 days): 69.1%±7.3
% NGN3+ cells, % of carrier control ([1]; 30 nM AG1478, 4 days): 62.3%±8.2

C[C@H](NC(=O)Cc1cc(F)cc(F)c1)C(=O)N[C@H](C(=O)OC(C)(C)C)c1ccccc1 [DAPT, N—[N-(3,5-Difluorophenacetyl-L-alanyl)]-S-phenylglycine t-butyl ester]
level of HES1 mRNA, % of carrier control ([2]; 2 μM DAPT): 63.0%±3.3
level of HES1 mRNA, % of carrier control ([2]; 20 μM DAPT): 55.4%±1.5
level of PTF1A mRNA, % of carrier control ([3]; 2 μM DAPT): 331.2%±10.8
level of PTF1A mRNA, % of carrier control ([3]; 20 μM DAPT): 391.6%±28.8
level of NGN3 mRNA, % of carrier control ([4]; 2 μM DAPT): 927.4%±52.6
level of NGN3 mRNA, % of carrier control ([4]; 20 μM DAPT): 1886.3%±102.4
% of cells expressing NGN3 protein, % of carrier control ([1]; 2 μM DAPT, 4 days): 124%±1.1
% of cells expressing NGN3 protein, % of carrier control ([1]; 20 μM DAPT, 4 days): 152.0%±2.2
effect on the D114-induced decrease of % NGN3+ cells ([1]; DAPT together with D114): blocked

C#Cc1cccc(Nc2ncnc3cc(OCCOC)c(OCCOC)cc23)c1 [Erlotinib]
% NGN3+ cells ([1]; 0.25 μM Erlotinib, n=1, data not shown): 31.0±4.8

COc1oc(=O)c2cc(N)ccc2c1Cl [JLK6, 7-Amino-4-chloro-3-methoxyisocoumarin]
effect on % of cells expressing NGN3 protein ([1]; JLK6 treatment, 4 days): No significant effect

CC(C)C[C@@H](C=O)NC(=O)[C@H](CC(C)C)NC(=O)[C@H](CC(C)C)NC(=O)OCc1ccccc1 [MG132, N-[(Phenylmethoxy)carbonyl]-L-leucyl-N-[(1S)-1-formyl-3-methylbutyl]-L-leucinamide] (Cbz-Leu-Leu-Leu-aldehyde)
% NGN3+ cells, % of carrier control ([1]; 1 μM MG132, 4 days): 182.8%±14.9
% NGN3+ cells, % of carrier control ([1]; 10 μM MG132, 4 days): 478.8%±33.6
% NGN3+ cells, % of carrier control ([1]; 20 μM MG132, 4 days): 533.6%±28.9

COc1c(C)c2c(c(O)c1C/C=C(\C)CCC(=O)O)C(=O)OC2 [MPA, Mycophenolic acid]
% cells GLU+ in pancospheres ([5]; carrier control 0.58%±0.2, P>0.05): 1.1%±0.23
% cells CPEP+ in pancospheres ([5]; carrier control 1.0±0.3): 2.9%±0.4

D114: Notch ligand Delta-like ligand 4 (R&D Systems)
% of NGN3+ cells, percent of carrier control ([1]; 500 ng/ml, data not shown): 60.1%±11.4

EGF: EGF receptor ligand added to culture (NSDSECPLSHDGYCLHDGVCMYIEALDKYACNCVVGYIGERCQYRDLKWWELR; Epidermal growth factor; UniProt P01133 971-1023, looked up)
change of % NGN3+ cells ([1]; addition of EGF 20 ng/ml): failed to significantly change

JAG-1 peptide: 17-residue polypeptide corresponding to amino acids 188-204 of the Jagged-1 Notch ligand (DDYYYGFGCNKFCRPRD; UniProt P78504 188-204, looked up, fragment)
% of cells expressing NGN3 protein, % of cells treated with scrambled peptide (SJAG) ([1]; 47 μM, 4 days): 39.0%±6.5

TGFα: EGF receptor ligand added to culture
change of % NGN3+ cells ([1]; addition of TGFα 40 ng/ml): failed to significantly change
